Test [1] concerns the target T1, AR BF3 binding pocket and Bag-1L (Homo sapiens, UniProt P10275).
T1 sequence (P10275 1-920): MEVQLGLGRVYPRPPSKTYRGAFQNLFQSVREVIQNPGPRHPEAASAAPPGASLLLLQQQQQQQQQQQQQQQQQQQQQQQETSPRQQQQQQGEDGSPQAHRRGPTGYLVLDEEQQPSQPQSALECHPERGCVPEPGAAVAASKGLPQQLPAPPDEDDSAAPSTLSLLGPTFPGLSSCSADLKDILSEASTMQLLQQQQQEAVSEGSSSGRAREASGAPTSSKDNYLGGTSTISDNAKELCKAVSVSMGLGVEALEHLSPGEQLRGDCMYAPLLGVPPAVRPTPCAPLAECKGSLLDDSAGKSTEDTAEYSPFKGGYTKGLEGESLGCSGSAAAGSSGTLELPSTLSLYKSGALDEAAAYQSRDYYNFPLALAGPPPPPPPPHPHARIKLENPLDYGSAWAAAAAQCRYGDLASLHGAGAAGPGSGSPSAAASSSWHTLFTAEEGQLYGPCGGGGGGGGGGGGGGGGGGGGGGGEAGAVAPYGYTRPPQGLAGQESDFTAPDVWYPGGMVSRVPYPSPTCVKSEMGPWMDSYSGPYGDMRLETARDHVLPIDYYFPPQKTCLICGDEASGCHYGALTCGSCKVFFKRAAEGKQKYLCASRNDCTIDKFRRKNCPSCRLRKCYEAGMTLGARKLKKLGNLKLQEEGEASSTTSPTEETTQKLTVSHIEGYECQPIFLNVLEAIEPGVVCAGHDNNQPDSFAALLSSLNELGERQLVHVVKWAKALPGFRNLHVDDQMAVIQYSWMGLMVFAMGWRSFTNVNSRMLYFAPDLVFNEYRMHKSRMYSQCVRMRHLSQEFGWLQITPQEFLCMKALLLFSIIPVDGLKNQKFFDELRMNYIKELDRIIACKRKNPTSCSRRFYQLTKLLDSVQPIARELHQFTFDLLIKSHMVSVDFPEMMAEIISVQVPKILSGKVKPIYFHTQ
The settings on record: cited from earlier work.

For test [2], the system named is flies expressing human AR52Q in pan-neuronal tissues (ELAV>UAS-AR52Q). Put plainly: Viability of SBMA flies (rescue of DHT-induced lethality). Type of test: in vivo, Drosophila. Particulars: flies reared on food containing 1 mM DHT and compound (TA, MEPB 0 to 400 μM). An excerpt:
UAS-AR52Q, UAS-AR52Q-K720A, and UAS-AR66Q-E897K fly stocks were generated as previously described^8. Fly stocks were crossed to various GAL4 driver lines (ELAV-GAL4 for pan-neuronal, OK371-GAL4 for motor neuron, GMR-GAL4 for eye) to induce expression of the AR transgene in a tissue-specific manner in fly vials containing fly food with either vehicle (1% ethanol +/−0.1% DMSO) or drugs. Upon the presence of progeny, parental flies were removed, and F1 flies were scored for phenotypic analysis. Viability was determined as previously described^40. Briefly, the population frequency of adult F1 SBMA flies (ELAV>UAS-AR52Q or OK371>UAS-AR52Q) and control flies (GAL4-ELAV; CyO-GFP) were determined by the presence or absence of the CyO phenotypic marker. At least three independent biological replicates (F0 crosses) were performed with new drug/food preparations for each treatment group, and a total of at least 50 flies were scored for each treatment group. To determine locomotor activity of SBMA flies, adult F1 flies (OK371>UAS-AR52Q) reared on food containing vehicle or drug were allowed to walk for 90 seconds in one well of a 12-well tissue culture plate while video was recorded using a Leica M205C stereomicroscope and Leica DFC320 digital camera. Videos were recorded for at least 15 flies per treatment group. Tracing of fly movement and analysis of displacement and velocity were performed using ImageJ software. Preparation and staining of larval neuromuscular junctions and ventral ganglions were performed as previously described^8.

As to `Cc1cccc(C)c1OCCSc1nc2ccccc2[nH]1` [CPD49, 2-((2-(2,6-dimethylphenoxy)ethyl)thio)-1H-benzimidazole], the BF3-Bag-1L binding entry in test [1] is recorded as “inhibited”. In the case of `CC(C)Cc1ccc(C(C)C(=O)O)cc1` (centres unmarked) [ibuprofen], the SBMA fly viability entry in test [2] was “did not”.

Values taken from patent publication US11707449B2, “Methods and formulations for treatment of spinobulbar muscular atrophy” (ST. JUDE CHILDREN'S RESEARCH HOSPITAL, INC., priority 2017, dated 2023).
